The subject of experiment [1] is Staphylococcus aureus. Description: Ratio of ciprofloxacin MIC to compound MIC for Staphylococcus aureus MTCC 96. In kind it is functional.
Experiment [2] deals with Aspergillus niger. Kind of experiment: Antifungal activity against Aspergillus niger MTCC 281 after 2 to 3 days by modified agar well diffusion method. In kind it is functional. On the technique in general: A growth-free zone around the sample is the usual read-out of agar diffusion tests.
Experiment [3] has as its system Fusarium solani. Kind of experiment: Ratio of miconazole MIC to compound MIC for Fusarium solani MTCC 350. In kind it is functional.
In experiment [4] the test system is Aspergillus flavus. Description: Ratio of miconazole MIC to compound MIC for Aspergillus flavus MTCC 277. In kind it is functional.
The subject of experiment [5] is Aspergillus flavus. Description: Antifungal activity against Aspergillus flavus MTCC 277 after 2 to 3 days by modified agar well diffusion method. In kind it is functional.
For experiment [6], the system named is Fusarium solani. Kind of experiment: Antifungal activity against Fusarium solani MTCC 350 after 2 to 3 days by modified agar well diffusion method. The format is functional.
Experiment [7] relates to Candida albicans. Description: Antifungal activity against Candida albicans MTCC 227 after 2 to 3 days by modified agar well diffusion method. In kind it is functional.
The test system of experiment [8] is Escherichia coli. Description: Ratio of ciprofloxacin MIC to compound MIC for Escherichia coli MTCC 443. In kind it is functional.
The test system of experiment [9] is Bacillus subtilis. Kind of experiment: Ratio of ciprofloxacin MIC to compound MIC for Bacillus subtilis MTCC 441. The format is functional.
Experiment [10] concerns Candida albicans. Kind of experiment: Ratio of miconazole MIC to compound MIC for Candida albicans MTCC 227. The format is functional.
Experiment [11] concerns Staphylococcus aureus. Description: Antibacterial activity against Staphylococcus aureus MTCC 96 after 24 hrs by modified agar well diffusion method. The format is functional. The following applies: MTCC 96, 24 h.
Experiment [12] concerns Salmonella typhimurium. Description: Antibacterial activity against Salmonella typhimurium MTCC 98 after 24 hrs by modified agar well diffusion method. In kind it is functional, Salmonella enterica subsp. enterica serovar Typhimurium. As to conditions: Salmonella enterica, MTCC 98, 24 h.
For experiment [13], the system named is Bacillus subtilis. Kind of experiment: Antibacterial activity against Bacillus subtilis MTCC 441 after 24 hrs by modified agar well diffusion method. In kind it is functional. As to conditions: MTCC 441, 24 h.
Experiment [14] has as its system THP-1. Description: Antiinflammatory activity in human PMA-activated THP1 cells assessed as inhibition of LPS-induced IL6 production at 10 uM incubated for 30 mins prior to LPS-challenge measured after 24 hrs by ELISA relative to control. In kind it is functional. (ELISA stands for enzyme-linked immunosorbent assay.)
Experiment [15] deals with Salmonella typhimurium. Kind of experiment: Ratio of ciprofloxacin MIC to compound MIC for Salmonella typhimurium MTCC 98. In kind it is functional, Salmonella enterica subsp. enterica serovar Typhimurium.
Experiment [16] deals with Aspergillus niger. Description: Ratio of miconazole MIC to compound MIC for Aspergillus niger MTCC 281. The format is functional.
Experiment [17] deals with Escherichia coli. Kind of experiment: Antibacterial activity against Escherichia coli MTCC 443 after 24 hrs by modified agar well diffusion method. In kind it is functional. As to conditions: MTCC 443, 24 h.
The test system of experiment [18] is THP-1. Description: Antiinflammatory activity in human PMA-activated THP1 cells assessed as inhibition of LPS-induced TNFalpha production at 10 uM incubated for 30 mins prior to LPS-challenge measured after 24 hrs by ELISA relative to control. The format is functional.
In experiment [19] the test system is THP-1. Description: Antiinflammatory activity in human PMA-activated THP1 cells assessed as inhibition of LPS-induced IL6 production at 1 uM incubated for 30 mins prior to LPS-challenge measured after 24 hrs by ELISA relative to control. In kind it is functional.
For experiment [20], the system named is THP-1. Kind of experiment: Antiinflammatory activity in human PMA-activated THP1 cells assessed as inhibition of LPS-induced TNFalpha production at 1 uM incubated for 30 mins prior to LPS-challenge measured after 24 hrs by ELISA relative to control. The format is functional.

Data on three molecules can be found in ChEMBL document CHEMBL2150945, “Synthesis and biological evaluation of novel piperazine derivatives of flavone as potent anti-inflammatory and antimicrobial agent” (2012).

≈ marks a conversion by molar mass, not a printed value.

As usually defined, the MIC is the least concentration at which growth counts as inhibited. A low value points to greater potency. Broadly, the inhibition is the share of the control response that was lost under treatment.

In the case of `COc1cc(OC)c2c(=O)cc(CNC3CCN(Cc4ccccc4)CC3)oc2c1`, the Ratio in [1], in [3], in experiment [4], in experiment [8], in experiment [9] and in experiment [10] was 2 each time. For the same molecule, the Ratio in experiment [15] and in experiment [16] was 2 throughout. In addition, the minimum inhibitory concentration (MIC) in [2] came to 10 µg/mL (≈ 24.5 µM); in experiment [5] it was 10 µg/mL (≈ 24.5 µM); in [6] it was 15 µg/mL (≈ 36.7 µM); in experiment [7], 10 µg/mL (≈ 24.5 µM); in [11], 10 µg/mL (≈ 24.5 µM); in experiment [12], 15 µg/mL (≈ 36.7 µM). Besides, the minimum inhibitory concentration (MIC) in experiment [13] and in experiment [17] was 10 µg/mL (≈ 24.5 µM) throughout. Besides, the inhibition at 10 µM was 35% in [14] and 20% in experiment [18].

`COc1ccc2oc(NC3CCN(Cc4ccccc4)CC3)cc(=O)c2c1`: the Ratio in experiment [1], in experiment [3], in [4], in experiment [8], in experiment [9] and in [10] was 2 in each case. In addition, the Ratio in experiment [15] and in experiment [16] was 2 throughout. Also, the MIC came out at 10 µg/mL (≈ 27.4 µM) in [2]; 15 µg/mL (≈ 41.2 µM) in experiment [5]; 10 µg/mL (≈ 27.4 µM) in [6]; 15 µg/mL (≈ 41.2 µM) in experiment [7]; 10 µg/mL (≈ 27.4 µM) in [11]; 10 µg/mL (≈ 27.4 µM) in experiment [12]. Besides, the minimum inhibitory concentration (MIC) in experiment [13] and in experiment [17] was 10 µg/mL (≈ 27.4 µM) each time. Besides, the results for the inhibition at 10 µM in experiment [14] and in [18] were 15% and 10%, respectively.

As to `C[C@@H]1C[C@H]2[C@@H]3CCC4=CC(=O)C=C[C@]4(C)[C@@]3(F)[C@@H](O)C[C@]2(C)[C@@]1(O)C(=O)CO` [DEXAMETHASONE], the values for the inhibition at 1 µM in experiment [19] and in [20] were 84% and 71%, respectively.
